{"source": "patent US12077508B2", "about": "“Inhibitors of the Notch transcriptional activation complex kinase (“NACK”) and methods for use of the same” (UNIVERSITY OF MIAMI, priority 2018, dated 2024)", "key": {"OE33 cells": {"tested_on": "OE33 cells", "test": "Cell apoptosis assay (Annexin V/PI flow cytometry)", "assay_type": "cell-based, human", "details": "day 7 of treatment, FIG. 9A", "description": "To investigate how Z271-0326 inhibits cell growth in EAC cell lines, the effect of Z271-0326 treatment was evaluated on apoptosis. OE33 was treated either with the GSI DAPT or Z271-0326 every other day, and their effects on apoptosis were analyzed. On day 7 of treatment, cell apoptosis was analyzed using FITC Annexin V/Dead Cell Apoptosis Kit with FIFC annexin V and PI for flow cytometry (Invitrogen, V13242)."}, "OE33 cell line": {"tested_on": "OE33 cell line", "test": "Colony formation assay in OE33 cells", "assay_type": "cell-based, human", "details": "cells treated every other day; FIGS. 5B, 5C", "description": "(§1) A cell based colony formation assay was used in these experiments. Normal mouse mammary epithelia HC11 cells have little or no endogenous NACK expression, and NACK knockdown had no effect on the growth of HC11 cells (FIG. 5A, lower panel). […] Knockdown of NACK was confirmed by western blot and qPCR (FIGS. 1D and 1E). […] Therefore, compounds that affect OE33 colony formation but not HC11 were desired. In order to screen the compounds, cells were treated with test compounds every other day.\n(§2) Colony formation assay was utilized to determine the effect of small molecule inhibitors on cell proliferation. In general, different cell lines (NACK dependent or independent) will be seeded in 6-well plates at a density of 2000 cells per well and allowed to attach overnight. Inhibitor treatment commenced 24 hours post seeding, and the media containing inhibitor was changed every 48 hours thereafter. After 168 hours, colonies were be stained with Crystal Violet (Millipore) and counted."}, "HES1 promoter": {"tested_on": "HES1 promoter", "test": "Chromatin immunoprecipitation (ChIP) at the HES1 promoter in OE33", "assay_type": "cell-based, human", "details": "24 hours, FIG. 8C", "description": "Notch/NACK-dependent cells were treated with either DAPT as a positive control, DMSO (vehicle) as a negative control, or compounds for screening for 24 hours. After treatment, cells were cross-linked and sonicated to yield chromatin fragments of approximately 500 bp, as previously described (See Weaver et al., Cancer Research 74, 4741-4751 (2014)). Lysates were immunoprecipitated with either α-Notch1 (Bethyl Laboratories, Montgomery, TX; A301-894A), α-Maml1 (Cell Signaling, 12166s), α-NACK (Bethyl Laboratories, A302-675A), or α-PoIII pSer5 (Abcam, ab5131) antibodies. DNA immunoprecipitates were cleaned using the PCR purification Kit (Qiagen). DNA were detected by Syber green qPCR using HES1 specific oligonucleotide primers (forward: 5′CGTGTCTCCTCCTCCCATT3′ (SEQ ID NO: 2); reverse: 5′GGGGGATTCCGCTGTTAT3′ (SEQ ID NO:3))."}, "HC11 cells": {"tested_on": "HC11 cells", "test": "Colony formation assay in HC11 cells", "assay_type": "cell-based, mouse", "details": "Notch/NACK independent cell line; FIG. 5B", "description": "as §1, §2"}}, "note": "Entries after “also recorded” stand apart in the source; their conditions may differ."}
{"smiles": "C[C@H](NC(=O)Cc1cc(F)cc(F)c1)C(=O)N[C@H](C(=O)OC(C)(C)C)c1ccccc1", "note": "[DAPT, reference compound]", "values": [{"measurement": "increase in the percent of cells undergoing apoptosis compared to the control", "setting": "OE33 cells", "value": "twofold"}, {"measurement": "OE33 colony formation", "setting": "OE33 cell line", "value": "reduction in the colony formation"}, {"measurement": "binding of N1ICD and NACK to the HES1 promoter", "setting": "HES1 promoter", "value": "abrogated the binding of N1ICD and NACK to the HES1 promoter"}, {"measurement": "HC11 colony formation / viability", "setting": "HC11 cells", "value": "did not alter the viability of HC11 cells; also recorded: insensitive"}]}
